The target of assay [1] is T1, Recombinant human c-Cbl (aa 47-435) (Homo sapiens, UniProt P22681).
T1 sequence (P22681 47-435): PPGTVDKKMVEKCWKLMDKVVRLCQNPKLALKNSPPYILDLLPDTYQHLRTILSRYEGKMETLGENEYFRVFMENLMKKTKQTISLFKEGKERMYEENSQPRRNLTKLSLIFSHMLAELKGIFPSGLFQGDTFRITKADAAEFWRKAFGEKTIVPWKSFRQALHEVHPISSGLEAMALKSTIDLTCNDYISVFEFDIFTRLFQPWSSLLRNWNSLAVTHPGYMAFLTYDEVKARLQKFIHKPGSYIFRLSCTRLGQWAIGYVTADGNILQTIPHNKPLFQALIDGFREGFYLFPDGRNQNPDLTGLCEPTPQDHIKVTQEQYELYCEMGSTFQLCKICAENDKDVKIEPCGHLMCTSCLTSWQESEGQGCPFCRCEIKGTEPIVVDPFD
The assay is described as follows: c-Cbl Biochemical Assay (TR-FRET). The note with it: hc-Cbl Biochemical Assay (TR-FRET); read-out: TR-FRET hcCbl IC50.

The subject of assay [2] is Jurkat (clone E6-1) cells with NFAT luciferase reporter. Description: Jurkat reporter assay (NFAT Luciferase). Format: cell-based. The following applies: Homo sapiens; Jurkat NFAT luciferase reporter cells, anti-CD3 stimulation, 6 hr; read-out: Jurkat NFAT EC50. For orientation: Reporter assays use an easily measured gene product as a stand-in for the process of interest.

Assay [3] deals with Recombinant human Cbl-b (aa 36-427) (Homo sapiens, UniProt Q13191). Description: Cbl-b Biochemical Assay (TR-FRET). The note with it: read-out: TR-FRET hCbl-b IC50. A general note: TR-FRET usually uses a lanthanide donor and a delayed reading to cut background.
Recombinant human Cbl-b (aa 36-427), sequence (Q13191 36-427): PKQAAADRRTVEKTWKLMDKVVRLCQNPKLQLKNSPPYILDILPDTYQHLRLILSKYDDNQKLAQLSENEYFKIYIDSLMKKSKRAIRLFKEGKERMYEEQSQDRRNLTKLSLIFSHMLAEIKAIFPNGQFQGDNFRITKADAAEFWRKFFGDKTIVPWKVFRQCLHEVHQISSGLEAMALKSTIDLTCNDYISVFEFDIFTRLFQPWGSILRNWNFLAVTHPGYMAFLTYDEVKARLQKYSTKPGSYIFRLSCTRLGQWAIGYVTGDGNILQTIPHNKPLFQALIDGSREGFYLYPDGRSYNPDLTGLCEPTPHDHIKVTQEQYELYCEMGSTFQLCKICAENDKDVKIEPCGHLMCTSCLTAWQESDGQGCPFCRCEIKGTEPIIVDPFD

As to `Cn1cnnc1-c1cc(F)ccc1-c1cc(-c2nc3cc(CNCC4(O)CCC4)cc(C(F)(F)F)c3o2)nc(C2CC2)c1` [ADR-1, 1-((((2-(6-Cyclopropyl-4-(4-fluoro-2-(4-methyl-4H-1,2,4-triazol-3-yl)phenyl)pyridin-2-yl)-7-(trifluoromethyl)benzo[d]oxazol-5-yl)methyl)amino)methyl)cyclobutan-1-ol], the IC50 in assay [1] and in assay [3] was under 200 nM each time. Further, the EC50 in assay [2] was under 200 nM.

`COCCNCc1cc(C(F)(F)F)c2oc(-c3cc(-c4ccc(F)cc4-c4nncn4C)cc(C4CC4)n3)nc2c1` [ADS-1, N-((2-(6-Cyclopropyl-4-(4-fluoro-2-(4-methyl-4H-1,2,4-triazol-3-yl)phenyl)pyridin-2-yl)-7-(trifluoromethyl)benzo[d]oxazol-5-yl)methyl)-2-methoxyethan-1-amine]: the IC50 in assay [1] and in assay [3] was under 200 nM throughout. The EC50 in assay [2] was under 200 nM.

With `Cn1cnnc1-c1cc(Cl)ccc1-c1cc(-c2nc3cc(CNCC4(O)CCC4)ccc3o2)nc(C2CC2)c1` [ADT-12, 1-({[(2-{4-[4-Chloro-2-(4-methyl-1,2,4-triazol-3-yl)phenyl]-6-cyclopropylpyridin-2-yl}-1,3-benzoxazol-5-yl)methyl]amino}methyl)cyclobutan-1-ol], the IC50 in assay [1] and in assay [3] was under 200 nM each time. Besides, in assay [2], the EC50 is under 200 nM.

On to `Cn1cnnc1-c1cc(F)ccc1-c1cc(-c2nc3cc(CO)cc(C(F)(F)F)c3[nH]2)nc(C2CC2)c1` [ADU-2, (2-{6-Cyclopropyl-4-[4-fluoro-2-(4-methyl-1,2,4-triazol-3-yl)phenyl]pyridin-2-yl}-7-(trifluoromethyl)-1H-1,3-benzodiazol-5-yl)methanol], for which the IC50 in assay [1] and in assay [3] was under 200 nM each time. Moreover, the concentration giving a half-maximal response (EC50) in assay [2] was 200 to 1000 nM.

Turning to `Cn1cnnc1-c1cc(F)ccc1-c1cc(-c2nc3cc(CN[C@@H]4CCC[C@@H]4O)cc(C(F)(F)F)c3[nH]2)nc(C2CC2)c1` [ADV-2, (1S,2R)-2-{[(2-{6-Cyclopropyl-4-[4-fluoro-2-(4-methyl-1,2,4-triazol-3-yl)phenyl]pyridin-2-yl}-7-(trifluoromethyl)-1H-1,3-benzodiazol-5-yl)methyl]amino}cyclopentan-1-ol], the IC50 in assay [1] and in assay [3] was under 200 nM each time. For the same compound, the concentration giving a half-maximal response (EC50) in assay [2] was under 200 nM.

Consider `COCCNCc1cc(C(F)(F)F)c2[nH]c(-c3cc(-c4ccc(F)cc4-c4nncn4C)cc(C4CC4)n3)nc2c1` [ADW-1, [(2-{6-Cyclopropyl-4-[4-fluoro-2-(4-methyl-1,2,4-triazol-3-yl)phenyl]pyridin-2-yl}-7-(trifluoromethyl)-1H-1,3-benzodiazol-5-yl)methyl](2-methoxyethyl)amine], for which the IC50 in assay [1] and in assay [3] was under 200 nM each time. Moreover, the 50% effective concentration (EC50) in assay [2] is under 200 nM.

Turning to `Cn1cnnc1-c1cc(F)ccc1-c1cc(Cl)nc(-c2nc3cc(CN[C@@H]4CCC[C@@H]4O)cc(C(F)(F)F)c3[nH]2)c1` [ADY-2, (1S,2R)-2-{[(2-{6-Chloro-4-[4-fluoro-2-(4-methyl-1,2,4-triazol-3-yl)phenyl]pyridin-2-yl}-7-(trifluoromethyl)-1H-1,3-benzodiazol-5-yl)methyl]amino}cyclopentan-1-ol], the half-maximal inhibitory concentration (IC50) in assay [1] and in assay [3] was under 200 nM in each case. Moreover, in assay [2], the EC50 was under 200 nM.

On to `Cn1cnnc1[C@]1(c2cccc(-c3nc4cc(CNCC5CCC5)cc(C(F)(F)F)c4o3)c2)C[C@H](C)C1` [ADZ-1, (Cyclobutylmethyl)[(2-{3-[(1r,3s)-3-methyl-1-(4-methyl-1,2,4-triazol-3-yl)cyclobutyl]phenyl}-7-(trifluoromethyl)-1,3-benzoxazol-5-yl)methyl]amine], for which the IC50 in assay [1] and in assay [3] was under 200 nM throughout. Moreover, the EC50 in assay [2] fell in the range of 200 to 1000 nM.

With `Cn1cnnc1-c1cc(F)ccc1-c1cccc(-c2nc3cc(CNCC(C)(C)O)cc(C(F)(F)F)c3o2)c1` [AE-2, 1-(((2-(4′-Fluoro-2′-(4-methyl-4H-1,2,4-triazol-3-yl)-[1,1′-biphenyl]-3-yl)-7-(trifluoromethyl)benzo[d]oxazol-5-yl)methyl)amino)-2-methylpropan-2-ol], the IC50 in assay [1] is 1000 to 10000 nM; in assay [3] it was under 200 nM. The EC50 in assay [2] lay in the range of 200 to 1000 nM.

In the case of `COc1cc(CN[C@@H]2CCC[C@@H]2O)cc2nc(-c3cccc([C@]4(c5nncn5C)C[C@@H](C)C4)c3)oc12` [AEC-2], the IC50 in assay [1] and in assay [3] was under 200 nM in each case. Further, the EC50 in assay [2] lay within 200 to 1000 nM.

Take `Cn1cnnc1-c1cc(F)ccc1-c1cc(-c2nc3cc(CN[C@@H]4CCC[C@@H]4O)ccc3[nH]2)nc(C2CC2)c1` [AEF-2, (1S,2R)-2-(((2-(6-Cyclopropyl-4-(4-fluoro-2-(4-methyl-4H-1,2,4-triazol-3-yl)phenyl)pyridin-2-yl)-1H-benzo[d]imidazol-5-yl)methyl)amino)cyclopentan-1-ol]: the IC50 in assay [1] and in assay [3] was under 200 nM throughout. In addition, the EC50 in assay [2] was in the range of 200 to 1000 nM.

Turning to `Cn1cnnc1-c1cc(F)ccc1-c1ccnc(-c2nc3cc(CN[C@@H]4CCC[C@@H]4O)cc(C(F)(F)F)c3o2)c1` [AEG-8, (1S,2R)-2-{[(2-{4-[4-Fluoro-2-(4-methyl-1,2,4-triazol-3-yl)phenyl]pyridin-2-yl}-7-(trifluoromethyl)-1,3-benzoxazol-5-yl)methyl]amino}cyclopentan-1-ol], the IC50 in assay [1] and in assay [3] was under 200 nM in each case. Also, in assay [2], the EC50 was under 200 nM.

With `Cn1cnnc1-c1cc(F)ccc1-c1cc(-c2nc3cc(CN[C@@H]4CCC[C@@H]4O)ccc3o2)nc(C2CC2)c1` [AEH-2, (1S,2R)-2-{[(2-{6-Cyclopropyl-4-[4-fluoro-2-(4-methyl-1,2,4-triazol-3-yl)phenyl]pyridin-2-yl}-1,3-benzoxazol-5-yl)methyl]amino}cyclopentan-1-ol], the IC50 in assay [1] and in assay [3] was under 200 nM throughout. Besides, the EC50 in assay [2] is under 200 nM.

With `Cn1cnnc1-c1cc(F)ccc1-c1cc(-c2nc3cc(CNCC4CC4)ccc3o2)nc(C2CC2)c1` [AEI-1, [(2-{6-Cyclopropyl-4-[4-fluoro-2-(4-methyl-1,2,4-triazol-3-yl)phenyl]pyridin-2-yl}-1,3-benzoxazol-5-yl)methyl](cyclopropylmethyl)amine], the IC50 in assay [1] and in assay [3] was under 200 nM in each case. For the same compound, in assay [2], the EC50 lay in the range of 200 to 1000 nM.

On to `CCNc1cc(-c2ccc(F)cc2-c2nncn2C)cc(-c2nc3cc(C(=O)OC)cc(C(F)(F)F)c3o2)n1` [AEK-2, Methyl 2-[6-(ethylamino)-4-[4-fluoro-2-(4-methyl-1,2,4-triazol-3-yl)-phenyl]-pyridin-2-yl]-7-(trifluoromethyl)-1,3-benzoxazole-5-carboxylate], for which the IC50 in assay [1] and in assay [3] was 1000 to 10000 nM in each case. Also, the EC50 in assay [2] is 1000 to 10000 nM.

Turning to `CCNc1cc(-c2ccc(F)cc2-c2nncn2C)cc(-c2nc3cc(CO)cc(C(F)(F)F)c3o2)n1` [AEL-1, {2-[6-(Ethylamino)-4-[4-fluoro-2-(4-methyl-1,2,4-triazol-3-yl)-phenyl]-pyridin-2-yl]-7-(trifluoromethyl)-1,3-benzoxazol-5-yl}-methanol], the IC50 in assay [1] and in assay [3] was 200 to 1000 nM throughout. Further, the EC50 in assay [2] lay in the range of 10000 to 50000 nM.

With `COCCNCc1ccc2oc(-c3cc(-c4ccc(Cl)cc4-c4nncn4C)cc(C4CC4)n3)nc2c1` [AEM-1], the IC50 in assay [1] and in assay [3] was under 200 nM throughout. In addition, the EC50 in assay [2] was under 200 nM.

For the compound `COCCNCc1ccc2oc(-c3cc(-c4ccc(C#N)cc4-c4nncn4C)cc(C4CC4)n3)nc2c1` [AEN-15, 4-[2-Cyclopropyl-6-(5-{1[(2-methoxyethyl)amino]methyl}-1,3-benzoxazol-2-yl)pyridin-4-yl]-3-(4-methyl-1,2,4-triazol-3-yl)benzonitrile], the values for the IC50 in assay [1] and in assay [3] were 200 to 1000 nM and under 200 nM, respectively. In addition, the half-maximal effective concentration (EC50) in assay [2] was in the range of 200 to 1000 nM.

For the compound `Cn1cnnc1-c1cc(C#N)ccc1-c1cc(-c2nc3cc(CNCC4CCC4)ccc3o2)nc(C2CC2)c1` [AEO-1, 4-[2-(5-{[(Cyclobutylmethyl)amino]methyl}-1,3-benzoxazol-2-yl)-6-cyclopropylpyridin-4-yl]-3-(4-methyl-1,2,4-triazol-3-yl)benzonitrile], the 50% inhibitory concentration (IC50) in assay [1] and in assay [3] was under 200 nM in each case. In addition, the half-maximal effective concentration (EC50) in assay [2] is under 200 nM.

For `Cn1cnnc1-c1cc(F)ccc1-c1cc(-c2nc3cc(CO)ccc3o2)cc(C2CC2)c1` [AEP-2, {2-[5-cyclopropyl-4′-fluoro-2′-(4-methyl-1,2,4-triazol-3-yl)-[1,1′-biphenyl]-3-yl]-1,3-benzoxazol-5-yl}methanol], the IC50 in assay [1] and in assay [3] was 200 to 1000 nM throughout. In assay [2], the EC50 fell in the range of 1000 to 10000 nM.

In the case of `Cn1cnnc1-c1cc(F)ccc1-c1cc(-c2nc3cc(CN[C@@H]4CCC[C@@H]4O)ccc3o2)cc(C2CC2)c1` [AEQ-2, (1S,2R)-2-[({2-[5-Cyclopropyl-4′-fluoro-2′-(4-methyl-1,2,4-triazol-3-yl)-[1,1′-biphenyl]-3-yl]-1,3-benzoxazol-5-yl}methyl)amino]cyclopentan-1-ol], the IC50 in assay [1] and in assay [3] was under 200 nM in each case. Moreover, the 50% effective concentration (EC50) in assay [2] was under 200 nM.

The IC50 is the concentration that inhibits the measured activity by half. One may read the EC50 as the midpoint of the concentration-response curve.
